Measurements reported in paper PMC11584656, “Viral sequence determines HLA-E-restricted T cell recognition of hepatitis B surface antigen” (Nature Communications, 2024).
Where two headings read alike, the source gives them in different places.

Legend:
[1] = target: recombinant human HLA-E*01:03 (heavy chain with β2m), soluble, refolded; assay: SPR
[2] = target: recombinant human HLA-E*01:03 (heavy chain with β2m), soluble, refolded; assay: thermal shift assay (refolded pHLA-E*01:03 complexes); Tm of the same pHLA-E*01:03 complexes as in the SPR stability assay (Fig. 1c); triplicate
[3] = tested on: THP-1-E cells (HLA-E*01:03) pulsed with peptide; assay: IFN-γ ELISpot cross-reactivity screen with HLA-E binding peptides; type: cell-based, human; settings: 1 nM ImmTAV, THP-1-E cells pulsed with 10 μg/mL peptide, average of 2 HBV-naïve donor PBMC each in triplicate
[4] = tested on: THP-1-E cells (HLA-E*01:01) pulsed with peptide; assay: as above; type: cell-based, human; settings: 1 nM ImmTAV, THP-1-E cells pulsed with 10 μg/mL peptide, average of 2 HBV-naïve donor PBMC each in triplicate
HLA-E*01:03 [5] = target: T1, HLA-E*01:03 (Homo sapiens, UniProt P13747); type: binding; settings: for Tm (°C): Figure 1a source data, 60:1 peptide excess; for Thermal stability Tm (°C): SYPRO Orange, 22-95 °C at 1 °C/min, mean ± SD of triplicates, SD
[6] = target: single chain β2m-HLA-E*01:03 on transduced cells
[7] = target: single chain β2m-HLA-E*01:01 on transduced cells
[8] = target: recombinant human HLA-E*01:03 (heavy chain with β2m), soluble, refolded; assay: thermal shift assay (peptide screen)
[9] = tested on: K562 cells transduced with single chain β2m-HLA-E*01:01; assay: K562 cell pulsing assay, HLA-E surface upregulation (3D12, flow cytometry); type: cell-based, human
[10] = tested on: K562 cells transduced with single chain β2m-HLA-E*01:03; assay: as above; type: cell-based, human
HLA-E*01:03 [11] = target: T1, HLA-E*01:03; assay: pHLA-E stability (t1/2) by SPR monitoring ILT2 binding; set-up: made in house; settings: SPR 25 °C
HLA-E*01:03 [12] = target: T1, HLA-E*01:03; type: binding; set-up: made in house; settings: refolded complexes

## A1 signal peptide
[1]
  t1/2 of the peptide-HLA-E complex: 2 h
[2]
  Tm of the peptide-HLA-E complex: 49 °C

## ALSWRLPLL [Mimetic peptide 1]
[3]
  HLA-E*01:03 INF-γ release (SFU ± SD): 54.1±15.6 SFU
[4]
  HLA-E*01:01 INF-γ release (SFU ± SD): 61.6±21.8 SFU

## CIPIPSSWAF [HBV Env peptide 312-321]
HLA-E*01:03 [5]; replicate 1
  Tm (°C): 42.2 °C
HLA-E*01:03 [5]; replicate 2
  Tm (°C): 41.7 °C
HLA-E*01:03 [5]; replicate 3
  Tm (°C): 42.2 °C
HLA-E*01:03 [5]
  Thermal stability Tm (°C): 42.1±0.3 °C

## Cw3 signal peptide
[1]
  t1/2 of the peptide-HLA-E complex: 2 h
[2]
  Tm of the peptide-HLA-E complex: 49 °C

## FIIFLFILL [HBV Env peptide 243-251]
HLA-E*01:03 [5]; replicate 1
  Tm (°C): 38.9 °C
HLA-E*01:03 [5]; replicate 2
  Tm (°C): 39.2 °C
HLA-E*01:03 [5]; replicate 3
  Tm (°C): 39.5 °C
HLA-E*01:03 [5]
  Thermal stability Tm (°C): 39.3±0.3 °C

## GMLPVCPLL [HBV Env peptide 265-273]
HLA-E*01:03 [5]; replicate 1
  Tm (°C): 45.1 °C
HLA-E*01:03 [5]; replicate 2
  Tm (°C): 45.1 °C
HLA-E*01:03 [5]; replicate 3
  Tm (°C): 45.5 °C
HLA-E*01:03 [5]
  Thermal stability Tm (°C): 45.3±0.3 °C

## HBV Env_(371-379) (S3N) peptide …
[1]
  t1/2 of the peptide-HLA-E complex: 0.658 h
[6]
  peptide concentration at which IFN-γ responses (ELISPOT) were detected: peptide titrated on THP-1-E*01:03 cells, PBMC, 1 nM a09b08 ImmTAV: 0.2 µg/mL
[7]
  peptide concentration at which IFN-γ responses (ELISPOT) were detected: peptide titrated on THP-1-E*01:01 cells, PBMC, 1 nM a09b08 ImmTAV: 4.9 µg/mL
[2]
  Tm of the peptide-HLA-E complex: 47 °C

## HBV Env_(371-379) peptide …
[8]
  Tm of the peptide-HLA-E complex: 47.1 °C
[1]
  t1/2 of the peptide-HLA-E complex: 0.112 h
[6]
  peptide concentration at which IFN-γ responses (ELISPOT) were detected: peptide titrated on THP-1-E*01:03 cells, PBMC, 1 nM a09b08 ImmTAV: 8.7 µg/mL
[2]
  Tm of the peptide-HLA-E complex: 44 °C

## ILPSDAPVL [MTB MmmpL875-83]
[3]
  HLA-E*01:03 INF-γ release (SFU ± SD): 54.8±17.4 SFU
[4]
  HLA-E*01:01 INF-γ release (SFU ± SD): 52.6±17.39 SFU

## ILQRFLPLI [Mimetic peptide 2]
[3]
  HLA-E*01:03 INF-γ release (SFU ± SD): 48.6±29.1 SFU
[4]
  HLA-E*01:01 INF-γ release (SFU ± SD): 60.5±20.8 SFU

## IMAPRTLVL [Leader A34]
[3]
  HLA-E*01:03 INF-γ release (SFU ± SD): 54.5±18.9 SFU
[4]
  HLA-E*01:01 INF-γ release (SFU ± SD): 55.5±6.8 SFU

## LLPRRGPRL [HCV Core]
[3]
  HLA-E*01:03 INF-γ release (SFU ± SD): 60±30.1 SFU
[4]
  HLA-E*01:01 INF-γ release (SFU ± SD): 61.1±21.8 SFU

## QMRPVSRVL [Hsp60 signal peptide]
[3]
  HLA-E*01:03 INF-γ release (SFU ± SD): 41.8±9.9 SFU
[4]
  HLA-E*01:01 INF-γ release (SFU ± SD): 43.8±6.36 SFU

## RLPAKAPLL [Mtb RLPA]
[3]
  HLA-E*01:03 INF-γ release (SFU ± SD): 72.1±12.8 SFU
[9]
  cell surface HLA-E expression after peptide pulsing: increased cell surface HLA-E expression
[10]
  cell surface HLA-E expression after peptide pulsing: increased cell surface HLA-E expression
[4]
  HLA-E*01:01 INF-γ release (SFU ± SD): 67.1±12.6 SFU

## RWMCLRRFI [HBV Env peptide 236-244]
HLA-E*01:03 [5]; replicate 1
  Tm (°C): 37.9 °C
HLA-E*01:03 [5]; replicate 2
  Tm (°C): 37.9 °C
HLA-E*01:03 [5]; replicate 3
  Tm (°C): 38.4 °C
HLA-E*01:03 [5]
  Thermal stability Tm (°C): 38.2±0.3 °C

## SSWAFARFL [HBV Env peptide 317-325]
HLA-E*01:03 [5]; replicate 1
  Tm (°C): 40.7 °C
HLA-E*01:03 [5]; replicate 2
  Tm (°C): 40.6 °C
HLA-E*01:03 [5]; replicate 3
  Tm (°C): 40.7 °C
HLA-E*01:03 [5]
  Thermal stability Tm (°C): 40.7±0.1 °C

## VMAPQALLL [Leader Cw16]
[3]
  HLA-E*01:03 INF-γ release (SFU ± SD): 49.1±19.2 SFU
[4]
  HLA-E*01:01 INF-γ release (SFU ± SD): 33.3±16.4 SFU

## VMAPRALLL [Leader Cw7]
[3]
  HLA-E*01:03 INF-γ release (SFU ± SD): 44.1±22.1 SFU
[4]
  HLA-E*01:01 INF-γ release (SFU ± SD): 30.3±12.9 SFU

## VMAPRTLFL [Leader G]
[3]
  HLA-E*01:03 INF-γ release (SFU ± SD): 48.1±19.7 SFU
[4]
  HLA-E*01:01 INF-γ release (SFU ± SD): 44.8±19.8 SFU

## VMAPRTLLL [Leader A1]
[3]
  HLA-E*01:03 INF-γ release (SFU ± SD): 65.6±28.4 SFU
HLA-E*01:03 [11]; Run 1
  pHLA-E*01:03 (t1/2 min): 105 min
HLA-E*01:03 [11]; Run 2
  pHLA-E*01:03 (t1/2 min): 125 min
HLA-E*01:03 [11]; Run 3
  pHLA-E*01:03 (t1/2 min): 127 min
HLA-E*01:03 [11]; rounded value
  pHLA-E*01:03 t1/2: 2 h
HLA-E*01:03 [12]; thermal shift assay, mean ± SD of triplicates
  pHLA-E*01:03 Tm: 49 °C
HLA-E*01:03 [12]; first well of three
  pHLA-E*01:03 (Tm °C): 49.62 °C
HLA-E*01:03 [12]; second well of three
  pHLA-E*01:03 (Tm °C): 48.27 °C
HLA-E*01:03 [12]; third well of three
  pHLA-E*01:03 (Tm °C): 48.53 °C
[4]
  HLA-E*01:01 INF-γ release (SFU ± SD): 67.8±14.9 SFU

## VMAPRTLVL [Leader A2]
[3]
  HLA-E*01:03 INF-γ release (SFU ± SD): 64.5±9.8 SFU
[4]
  HLA-E*01:01 INF-γ release (SFU ± SD): 50.5±6.8 SFU

## VMAPRTVLL [Leader B7]
[3]
  HLA-E*01:03 INF-γ release (SFU ± SD): 48.7±7.3 SFU
[4]
  HLA-E*01:01 INF-γ release (SFU ± SD): 43.3±7.8 SFU

## VMPPRTLLL [Leader A80]
[3]
  HLA-E*01:03 INF-γ release (SFU ± SD): 61.1±14.3 SFU
[4]
  HLA-E*01:01 INF-γ release (SFU ± SD): 44.8±8.6 SFU

## VTAPRTLLL [Leader B13]
[3]
  HLA-E*01:03 INF-γ release (SFU ± SD): 56±17.9 SFU
[4]
  HLA-E*01:01 INF-γ release (SFU ± SD): 53±13.4 SFU

## VTAPRTVLL [Leader B15]
[3]
  HLA-E*01:03 INF-γ release (SFU ± SD): 40±17.4 SFU
[4]
  HLA-E*01:01 INF-γ release (SFU ± SD): 42.8±13.4 SFU
